From the NIST ThermoML archive (doi:10.1021/acs.jced.6b00158)

Test: xn = mol fraction of the nth substance listed
Conditions: 100 kPa, Liquid; for viscosity: Falling or rolling sphere viscometry; for mass density: Vibrating tube method

NC1CCCCC1 [cyclohexylamine] + CC(C)CO
Conditions	mass density, 293.15 K [kg/m3]	mass density, 298.15 K [kg/m3]	mass density, 303.15 K [kg/m3]	mass density, 308.15 K [kg/m3]	mass density, 313.15 K [kg/m3]	viscosity, 293.15 K [mPa·s]	viscosity, 298.15 K [mPa·s]	viscosity, 303.15 K [mPa·s]	viscosity, 308.15 K [mPa·s]	viscosity, 313.15 K [mPa·s]
x2 = 0	866.85	862.31	857.79	853.24	848.71	2.134	1.944	1.786	1.572	1.417
x2 = 0.06096	865.7	861.18	856.68	852.18	847.71	2.408	2.146	1.948	1.697	1.515
x2 = 0.1205	865.02	860.59	856.11	851.64	847.15	2.575	2.279	2.055	1.791	1.578
x2 = 0.2357	861.79	857.37	852.93	848.49	844.09	2.838	2.474	2.204	1.917	1.678
x2 = 0.3458	856.98	852.62	848.23	843.79	839.39	3.048	2.644	2.334	2.022	1.761
x2 = 0.4513	850.89	846.55	842.2	837.83	833.46	3.246	2.805	2.454	2.123	1.839
x2 = 0.5523	847.01	842.76	838.46	834.13	829.78	3.403	2.937	2.558	2.212	1.902
x2 = 0.6492	839.36	835.13	830.89	826.62	822.37	3.522	3.037	2.626	2.275	1.96
x2 = 0.7421	830.79	826.7	822.55	818.36	814.15	3.534	3.046	2.629	2.303	1.998
x2 = 0.8315	820.81	816.78	812.73	808.63	804.54	3.606	3.088	2.646	2.309	1.998
x2 = 0.9174	814.12	810.19	806.19	802.09	798	3.668	3.13	2.676	2.345	2.015
